Values joined by “and” are separate entries in the source; they are usually repeats but may differ in a detail not shown here. Equal values may be shown once.
Assays:
Fibrils 4174 = Fibrils 4174 (Homo sapiens, UniProt P37840); experiment: 3H radioligand competition, Fibrils 4174; type: binding; settings: hot concentration 2 nM
Method: (§1) A series of compounds were synthesized and the Ki (nM) in the presence of Fibrils 4174, PD-seeded fibrils (using Tg-1-90B as the radioligand), AD Tissue 6843 and/or AD Tissue 2846 was determined. In each experiment, the “hot” concentration was 2 nM.

α-synuclein fibrils = α-synuclein fibrils (Homo sapiens (Human), UniProt P37840); experiment: Thioflavin T fluorescence competitive assay; settings: for Ki: read-out: Thioflavin T assay Ki, competition with ThT on recombinant α-synuclein fibrils, at least three experiments
PD-seeded fibrils [1] = target: T1, PD-seeded fibrils (Homo sapiens (Human), UniProt P37840); experiment: Heterologous competition binding assay with [18F]TZ61-44 as radioligand; settings: radioligand [18F]TZ61-44, 25 nM PD-seeded fibrils; for Ki: Cheng-Prusoff from EC50
Method: The equilibrium inhibitor constant (Ki) of a series of compounds was measured using heterologous radioactive binding assays with [^18F]TZ61-44, […], or [^125I]TZ61-84 as the screening radioligands. EC50 values for each compound were determined by fitting the data to the equation Y=Bottom+(Top−Bottom)/(1+(X−Log EC50)^−Hillcoefficient) using nonlinear regression by Kaleidagraph software, where Top and Bottom are the Y values for the top and bottom plateaus of the binding curve. The Ki values were derived from the EC50 values using the Cheng-Prusoff equation: Ki=EC50/(1+[radioligand]/Kd). FIGS. 5A-5E show the inhibition curves for TG-1-90B, TZ55-101, TZ61-84, TZ55-107, and TZ55-81 using [^18F]TZ61-44 as the radioligand. FIG. 11B-C show the inhibition curves for two separate experiments on PD fibrils for TZ55-101 using […] as the radioligand. FIGS. 12A-12F show the inhibition curves for TZ66-3, TZ64-015, TZ64-016, TZ64-018, TZ64-019, and TZ64-020 using [^18F]TZ61-44 as the radioligand. FIGS. 13A-13D show the inhibition curves for TZ66-9, TZ66-8, and TZ55-107 using [^18F]TZ61-44 as the radioligand.

PD-seeded fibrils [2] = target: T1, PD-seeded fibrils; experiment: Radioligand competition, PD-seeded fibrils (Tg-1-90B as radioligand); type: binding; settings: PD-seeded fibrils (Tg-1-90B radioligand); hot concentration 2 nM
Method: as §1

AD Tissue 6843 = experiment: 3H radioligand competition, AD Tissue 6843; type: binding; settings: hot concentration 2 nM
Method: as §1

AD Tissue 2846 = experiment: 3H radioligand competition, AD Tissue 2846; type: binding; settings: hot concentration 2 nM
Method: as §1

[3] = target: Banner PD-seeded α-synuclein fibrils (Homo sapiens (Human), UniProt P37840); experiment: Homologous competition radioligand binding assay, PD-seeded fibrils
Method: The equilibrium dissociation constant (Kd) for a series of compounds was determined using direct radioactive competitive binding assays (homologous or heterologous) with either recombinant α-synuclein fibrils or brain tissue homogenates from AD cases.
Recombinant protein was produced in E. coli using protocols based on previously described methods for α-synuclein [Giasson, B. I., et al., “Mutant and wild type human alpha-synucleins assemble into elongated filaments with distinct morphologies in vitro,” 1999, J Biol. Chem., 274:7619-7622; Huang, C., et al., “A new method for purification of recombinant human alpha-synuclein in Escherichia coli,” 2005, Protein Expr Purif, 42:173-177; Yu, L., et al, “Synthesis and in vitro evaluation of á-synuclein ligands,” 2012, Bioorg. Med. Chem., 20:4625-4634] and tau [Li, W., et al., “Characterization of two VQIXXK motifs for tau fibrillization in vitro,” 2006, Biochemistry, 45:15692-15701]. BL21(DE3)RIL E. coli were transformed with a pRK172 bacterial expression plasmid containing the human α-synuclein coding sequence. […]. Overnight cultures were centrifuged at 3,900×g for 10 min at 25° C. and the bacterial pellets were resuspended by gentle vortexing in 20 ml osmotic shock buffer (30 mM Tris-HCl, 2 mM EDTA, 40% Sucrose, pH 7.2) and then incubated at room temperature for 10 min. The cell suspension was then centrifuged at 8,000×g for 10 min at 25° C. and the pellet was resuspended in 22.5 ml cold H2O before adding 9.4 μl 2 M MgCl2 to each tube. The suspension was incubated on ice for 3 min prior to centrifugation at 20,000×g for 15 min at 4° C. After the supernatant was transferred to a fresh tube, streptomycin was added to a final concentration of 10 mg/ml and centrifuged at 20,000×g for 15 min at 4° C. The supernatant from this step was collected and dithiothreitol (DTT) and Tris-HCl pH 8.0 were added to final concentrations of 1 mM and 20 mM respectively, before boiling for 10 min to precipitate heat-sensitive proteins, which were pelleted at 20,000×g for 15 min at 4° C. The supernatant was collected and filtered through a 0.45 μm surfactant-free cellulose acetate filter (Corning) before loading onto a 1 ml DEAE Sepharose column equilibrated in 20 mM Tris-HCl pH 8.0, 1 mM EDTA, and 1 mM DTT. The DEAE column was washed with 20 mM Tris-HCl pH 8.0, 1 mM EDTA, 1 mM DTT before eluting α-synuclein protein in 20 mM Tris-HCl pH 8.0 buffer with 1 mM EDTA, 1 mM DTT and 0.3 M NaCl. Purified α-synuclein protein was dialyzed overnight in 10 mM Tris-HCl pH 7.6, 50 mM NaCl, 1 mM DTT.
Purified recombinant α-synuclein monomer (2 mg/ml) was incubated in 20 mM Tris-HCl, pH 8.0, 100 mM NaCl for 72 h at 37 C with shaking at 1000 rpm in an Eppendorf Thermomixer. […] The concentration of α-synuclein monomer in the supernatant was determined in a BCA protein assay according to the manufacturer's instructions, using a bovine serum albumin (BSA) standard curve. The measured decrease in α-synuclein monomer concentration was used to determine the concentration of fibrils in the 72 h fibril reaction mixture. […]
These direct binding assays used a fixed concentration of either fibrils or PD/AD tissue and the radioligand (e.g., [^18F]28) and varying concentration ranges of corresponding homologous non-radiolabeled standard reference compound. […] Reactions were incubated at 37° C. for 1 h before quantifying bound radioligand. […]

[4] = MicroPET studies in the brain of nonhuman primate; type: in vivo; settings: male adult cynomolgus macaca
Method: 9.93 mCi of [^18F]TZ61-44 was injected into a male adult cynomolgus macaca (9.25 Kg) 10.57 mCi of [^11C]TZ55-107 was injected into was injected into a male adult cynomolgus macaca (9.40 Kg) A simplified reference tissue model (SRTM) and spatially-constraint linear regression algorithm was used to generate R1 and DVR images (FIGS. 18A and 18B).
FIGS. 19A and 19B graphically depict the uptake of labeled TZ55-107 and TZ61-44 in the animals. [^18F]TZ61-44 had highest cortical uptake (SUV) of ˜3.48 at 4 min and the uptake ratio at 4 min versus 120 min reached ˜4.2 (FIG. 19A); [^11C]TZ55-107 had highest cortical uptake of ˜6.40 at 4 min, and the uptake ratio at 4 min versus 120 min reached ˜6.30 (FIG. 19B).

Row | SMILES | EC50 (PD-seeded fibrils [1]) | Ki (PD-seeded fibrils [1]) | Ki (α-synuclein fibrils) [nM] | further results
1 | COc1ccc2cc(-c3noc(-c4ccnc(F)c4)n3)ccc2c1 [TZ46-102] |  |  |  | Ki (Fibrils 4174): 203 nM
2 | COc1ccc2nc(-c3csc(/C=N/O)c3)ccc2c1 [TZ66-16] |  |  | 11 | potency in Thioflavin T assay (α-synuclein fibrils): high potency
3 | COC(=O)c1cc(-c2ccc3cc(OC)ccc3n2)cs1 [TZ66-25] |  |  | 17 | potency in Thioflavin T assay (α-synuclein fibrils): high potency
4 | COc1ccc2nc(-c3noc(-c4ccc5ncccc5c4)n3)ccc2c1 [TZ46-147] |  |  |  | Ki (Fibrils 4174): 96 nM; Ki (PD-seeded fibrils [2]): 39 nM; Ki (AD Tissue 6843): 21 nM; Ki (AD Tissue 2846): 30 nM
5 | COc1ccc2nc(-c3noc(-c4cocn4)n3)ccc2c1 [TZ46-120] |  |  |  | Ki (Fibrils 4174): 646 nM
6 | COCc1cc(-c2ccc3cc(OC)ccc3n2)cs1 [TZ66-9] | 84 nM | 78 nM |  | 
7 | COc1ccc2nc(-c3noc(-c4cscn4)n3)ccc2c1 [TZ46-117] |  |  |  | Ki (Fibrils 4174): 156 nM
8 | COc1ccc2nc(-c3noc(-c4ccc(-n5ccnc5)cc4)n3)ccc2c1 [TZ46-155] |  |  |  | Ki (PD-seeded fibrils [2]): 230 nM
9 | COc1ccc2nc(-c3coc(C=O)c3)ccc2c1 [TZ64-19] |  |  | 10.4 | potency in Thioflavin T assay (α-synuclein fibrils): high potency
10 | FCCOc1ccc2nc(-c3noc(-c4ccn5ccnc5c4)n3)ccc2c1 [Compound 33, 3-(6-(2-Fluoroethoxy)quinolin-2-yl)-5-(imidazo[1,2-c]pyridin-7-yl)-1,2,4-oxadiazole] |  |  | > 1000 | 
11 | COCOc1ccc2nc(-c3noc(-c4ccn5ccnc5c4)n3)ccc2c1 [Compound 34, 5-(Imidazo[1,2-c]pyridin-7-yl)-3-(6-(methoxymethoxy)-quinolin-2-yl)-1,2,4-oxadiazole] |  |  | > 1000 | 
12 | COCOc1ccc2nc(-c3noc(-c4ccnc(OC)c4)n3)ccc2c1 [Compound 29, 3-(6-(Methoxymethoxy)quinolin-2-yl)-5-(2-methoxypyridin-4-yl)-1,2,4-oxadiazole] |  |  | > 1000 | 
13 | COc1cc(-c2nc(-c3ccc4cc(OC(C)C)ccc4n3)no2)ccn1 [Compound 30, 3-(6-Isopropoxyquinolin-2-yl)-5-(2-methoxypyridin-4-yl)-1,2,4-oxadiazole] |  |  | > 1000 | 
14 | COc1ccc2nc(-c3coc(C=O)c3)ccc2c1 [TZ64-019] | 28 nM | 27 nM |  | 
15 | CC(C)Oc1ccc2nc(-c3noc(-c4ccn5ccnc5c4)n3)ccc2c1 [Compound 32, 5-(Imidazo[1,2-c]pyridin-7-yl)-3-(6-isopropoxyquinolin-2-yl)-1,2,4-oxadiazole] |  |  | > 1000 | 
16 | COc1ccc(Nc2ccc3cc(I)ccc3n2)cn1 [TZ64-102] |  |  | 12 | potency in Thioflavin T assay (α-synuclein fibrils): high potency
17 | COc1ccc(Nc2ccc3c([N+](=O)[O-])cccc3n2)cn1 [TZ64-82] |  |  | 18 | potency in Thioflavin T assay (α-synuclein fibrils): high potency
18 | COc1ccc2nc(-c3noc(-c4ccnc(OC)c4)n3)ccc2c1 [Compound 27, 5-(2-Methoxypyridin-4-yl)-3-(6-methoxyquinolin-2-yl)-1,2,4-oxadiazole] |  |  | 630 | 
19 | COc1cccc(-c2nc(-c3ccc4cc(OC)ccc4n3)no2)c1 [TZ46-139] |  |  |  | Ki (Fibrils 4174): 222 nM
20 | COc1ccc2nc(-c3noc(-c4ccc5c(c4)OCO5)n3)ccc2c1 [TZ46-136] |  |  |  | Ki (Fibrils 4174): 162 nM
21 | COc1ccc2nc(Nc3ccnc(OC)c3)ccc2c1 [TZ55-107] | 24 nM and 36 nM | 22 nM and 34 nM |  | binding affinity towards PD / α-synuclein fibrils ([3]; preliminary / initial competitive binding assays): good binding affinity; selectivity ([3]; preliminary binding assays): moderate selectivity; highest cortical uptake (SUV) ([4]; brain cortex, at 4 min): ~6.40 SUV; uptake ratio at 4 min versus 120 min ([4]; brain cortex): ~6.30; blood brain barrier penetration [4]: able to penetrate the blood brain barrier
22 | COc1ccc(Nc2ccc3cc([N+](=O)[O-])ccc3n2)cn1 [TZ64-55] |  |  | 15 | potency in Thioflavin T assay (α-synuclein fibrils): high potency
23 | COc1ccc2nc(-c3noc(-c4ccn5ccnc5c4)n3)ccc2c1 [Compound 31, 5-(Imidazo[1,2-c]pyridin-7-yl)-3-(6-methoxyquinolin-2-yl)-1,2,4-oxadiazole] |  |  | > 1000 | 
24 | COc1ccc(Nc2ccc3cc(Br)ccc3n2)cn1 [TZ64-105] |  |  | 10 | potency in Thioflavin T assay (α-synuclein fibrils): high potency
25 | COc1ccc2nc(Nc3coc(C=O)c3)ccc2c1 [TZ64-91] |  |  | 18 | potency in Thioflavin T assay (α-synuclein fibrils): high potency

More lines, main results first:

Row | EC50 (PD-seeded fibrils [1]) | Ki (PD-seeded fibrils [1]) | SMILES | Ki (α-synuclein fibrils) [nM] | further results
26 | 45 nM | 42 nM | COc1ccc(Nc2ccc3cccc(F)c3n2)cn1 [TZ64-016] |  | 
27 | 37 nM | 34 nM | COc1ccc2nc(-c3csc(C#N)c3)ccc2c1 [TZ64-020] |  | 
28 | 127 nM | 119 nM | COc1ccc2nc(-c3csc(C(C)=O)c3)ccc2c1 [TZ64-018] |  | 
29 | 73 nM | 68 nM | C=CCOCc1cc(-c2ccc3cc(OC)ccc3n2)cs1 [TZ66-8] |  | 
30 | 46 nM | 43 nM | COc1ccc(Nc2ccc3c(F)cccc3n2)cn1 [TZ64-015] |  | 
31 | 29 nM | 27 nM | COc1ccc(Nc2ccc3cc(F)ccc3n2)cn1 [TZ64-013] |  | 
32 | 78 nM | 73 nM | COc1ccc2nc(-c3csc(C(=O)O)c3)ccc2c1 [TZ66-3] |  | 

Reference: US12012394B2, “Alpha-synuclein ligands” (Washington University, priority 2018, dated 2024)
